The values that follow come from ChEMBL document CHEMBL1156020, “Synthesis and antiviral activity of HCV NS3/4A peptidomimetic boronic acid inhibitors” (Bioorg Med Chem Lett, 2009).

A value given as a limit tells only on which side of the number the result lay.

Experiment [1] deals with Hepatitis C virus. Description: Inhibition of HCV1b con1 NS3/4A protease after 20 mins by FRET-based assay. The note with it: Con1, 20 min. Also on record: species or system Hepacivirus hominis.
The subject of experiment [2] is Hepatitis C virus. The experiment can be described thus: Antiviral activity against HCV infected in human Huh-luc/neo-ET cells after 72 hrs by replicon assay. It is filed as functional, organism-based, Hepacivirus hominis. (Replicon systems follow genome replication, usually without infectious particles.)
Experiment [3] in a line: Inhibition of HCV1a wild type NS3/4A protease after 20 mins by FRET-based assay. Also on record: species or system Hepatitis C virus subtype 1a.
The nature of experiment [4]: Inhibition of HCV2a wild type NS3/4A protease after 20 mins by FRET-based assay. Also on record: species or system Hepatitis C virus subtype 2a.
A short description of experiment [5]: Inhibition of HCV3a wild type NS3/4A protease after 20 mins by FRET-based assay. Also on record: species or system Hepatitis C virus subtype 3a.
The test system of experiment [6] is Hepatitis C virus. The experiment can be described thus: Selectivity ratio of IC50 for HCV1b con1 wild type NS3/4A protease over IC50 for HCV1b con1 NS3/4A protease A156S mutant. Also on record: species or system Hepacivirus hominis.
Experiment [7] concerns Hepatitis C virus. Description: Selectivity ratio of IC50 for HCV1b con1 wild type NS3/4A protease over IC50 for HCV1b con1 NS3/4A protease A156T mutant. Also on record: species or system Hepacivirus hominis.
Experiment [8] concerns Hepatitis C virus. Description: Selectivity ratio of IC50 for HCV1b con1 wild type NS3/4A protease over IC50 for HCV1b con1 NS3/4A protease A156V mutant. Also on record: species or system Hepacivirus hominis.
Experiment [9] has as its system Hepatitis C virus. The experiment can be described thus: Selectivity ratio of IC50 for HCV1b con1 wild type NS3/4A protease over IC50 for HCV1b con1 NS3/4A protease R155K mutant. Also on record: species or system Hepacivirus hominis.
Experiment [10] concerns Hepatitis C virus. The experiment can be described thus: Selectivity ratio of IC50 for HCV1b con1 wild type NS3/4A protease over IC50 for HCV1b con1 NS3/4A protease D168A mutant. Also on record: species or system Hepacivirus hominis.
The test system of experiment [11] is Hepatitis C virus. The experiment can be described thus: Selectivity ratio of IC50 for HCV1b con1 wild type NS3/4A protease over IC50 for HCV1b con1 NS3/4A protease T54A mutant. Also on record: species or system Hepacivirus hominis.

`CCC[C@H](NC(=O)[C@@H]1C[C@@H](OC(=O)N2Cc3ccccc3C2)CN1C(=O)[C@@H](NC(=O)OCCN1CCCC1)C(C)(C)C)B1O[C@@H]2C[C@@H]3C[C@@H](C3(C)C)[C@]2(C)O1` came in with an IC50 in experiment [1] of 0.005 µM. In experiment [2], this compound had an EC50 of over 1 µM.

As for `CCC[C@H](NC(=O)[C@@H]1C[C@@H](OC(=O)N2Cc3ccccc3C2)CN1C(=O)[C@@H](NC(=O)OCC(C)C)C(C)(C)C)B1O[C@@H]2C[C@@H]3C[C@@H](C3(C)C)[C@]2(C)O1`, in experiment [1], the IC50 is 0.0003 µM. The compound further returned a concentration giving a half-maximal response (EC50) in experiment [2] of 0.054 µM.

In [1], `CCC[C@H](NC(=O)[C@@H]1C[C@@H](OC(=O)N2Cc3ccccc3C2)CN1C(=O)[C@@H](NS(C)(=O)=O)C(C)(C)C)B1O[C@@H]2C[C@@H]3C[C@@H](C3(C)C)[C@]2(C)O1` yielded an IC50 of 0.011 µM. This compound showed an EC50 in [2] of over 1 µM.

For the compound `CCC[C@H](NC(=O)[C@@H]1C[C@@H](OC(=O)N2Cc3ccccc3C2)CN1C(=O)[C@@H](NC(=O)OC(C)(C)C)C(C)(C)C)B1O[C@@H]2C[C@@H]3C[C@@H](C3(C)C)[C@]2(C)O1`, inhibition in experiment [1] was half-maximal at 0.0008 µM (IC50). In addition, it took 0.093 µM to reach a half-maximal effect in experiment [2] (EC50).

In turn, `CCC[C@H](NC(=O)[C@@H]1C[C@@H](OC(=O)N2Cc3ccccc3C2)CN1C(=O)[C@@H](NC(=O)NCCN(CC)CC)C(C)(C)C)B1O[C@@H]2C[C@@H]3C[C@@H](C3(C)C)[C@]2(C)O1` came in with a half-inhibitory concentration (IC50) in [1] of 0.027 µM. The compound further displayed a concentration for a half-maximal effect (EC50) in experiment [2] of over 1 µM.

Compound `CC(C)(C)OC(=O)N[C@H](C(=O)N1C[C@H](OC(=O)N2Cc3ccccc3C2)C[C@H]1C(=O)N[C@@H](CC1CCC1)B(O)O)C(C)(C)C` came in with a concentration for half-maximal inhibition (IC50) in experiment [1] of 0.002 µM. This compound also gave an EC50 in experiment [2] of 0.171 µM.

`CC[C@H](NC(=O)[C@@H]1C[C@@H](OC(=O)N2Cc3ccccc3C2)CN1C(=O)[C@@H](NC(=O)OC(C)(C)C)C1CCCCC1)B(O)O`: the IC50 in experiment [1] was 0.001 µM; in experiment [3] it was 0.0009 µM; in experiment [4], 0.006 µM; in experiment [5], 0.023 µM. Also, the “Ratio IC50” value in [6] came to 4; in [7] it was 40; in experiment [8] it was 64; in experiment [9] it was 63; in experiment [10] it was 47; in experiment [11], 69. For the same compound, in [2], a half-maximal effect (EC50) was put at 0.071 µM.

`CCC[C@H](NC(=O)[C@@H]1C[C@@H](OC(=O)N2Cc3ccccc3C2)CN1C(=O)[C@@H](NC(=O)C(O)C(C)(C)C)C(C)(C)C)B1O[C@@H]2C[C@@H]3C[C@@H](C3(C)C)[C@]2(C)O1` (some centres undefined) showed an IC50 in [1] of 0.003 µM. The compound further yielded an EC50 in [2] of over 1 µM.

In turn, `CCC[C@H](NC(=O)[C@@H]1C[C@@H](OC(=O)N2Cc3ccccc3C2)CN1C(=O)[C@@H](NC(=O)OCC(C)(C)C)C(C)(C)C)B1O[C@@H]2C[C@@H]3C[C@@H](C3(C)C)[C@]2(C)O1` gave a concentration for half-maximal inhibition (IC50) in experiment [1] of 0.0007 µM. In [2], the response was half-maximal at 0.041 µM (EC50).

In the case of `CCC[C@H](NC(=O)[C@@H]1C[C@@H](OC(=O)N2Cc3ccccc3C2)CN1C(=O)[C@@H](NC(=O)OCC)C(C)(C)C)B1O[C@@H]2C[C@@H]3C[C@@H](C3(C)C)[C@]2(C)O1`, in experiment [1], the IC50 is 0.002 µM. Moreover, the EC50 in [2] was 0.23 µM.

Turning to `CC(C)(C)OC(=O)N[C@H](C(=O)N1C[C@H](OC(=O)N2Cc3ccccc3C2)C[C@H]1C(=O)NC1(B(O)O)CC1)C1CCCCC1`, the IC50 in experiment [1] was 3.35 µM.

On to `CCC[C@H](NC(=O)[C@@H]1C[C@@H](OC(=O)N2Cc3ccccc3C2)CN1C(=O)[C@@H](NC(=O)OC(C)(C)C)C(C)(C)C)B(O)O`, for which the IC50 in experiment [1] was 0.001 µM; in experiment [3] it was 0.002 µM; in experiment [4] it was 0.021 µM; in experiment [5], 0.061 µM. The “Ratio IC50” value in [6] is recorded as 5; in experiment [7], 70; in experiment [8], 158; in experiment [9], 109; in experiment [10], 61; in experiment [11], 121. Besides, the EC50 in experiment [2] turned out to be 0.069 µM.

In [1], `CCC[C@H](NC(=O)[C@@H]1C[C@@H](OC(=O)N2Cc3ccccc3C2)CN1C(=O)[C@@H](NC(=O)OC(C)(C)C)C1CCCCC1)B(O)O` gave an IC50 of 0.002 µM. Further, it took 0.11 µM to reach a half-maximal effect in experiment [2] (EC50).

With `CCC[C@H](NC(=O)[C@@H]1C[C@@H](OC(=O)N2Cc3ccccc3C2)CN1C(=O)[C@@H](NC(=O)N[C@H](CN(C)S(C)(=O)=O)C(C)(C)C)C(C)(C)C)B(O)O`, the 50% inhibitory concentration (IC50) in experiment [1] was found to be 0.0005 µM; in [3] it was 0.0003 µM; in experiment [4] it was 0.0006 µM; in experiment [5] it was 0.0009 µM. The “Ratio IC50” value is under 4 in experiment [6]; under 4 in [7]; 12 in [8]; 6 in experiment [9]; under 4 in experiment [10]; 8 in experiment [11]. The compound also gave an EC50 in experiment [2] of 0.025 µM.

Turning to `CCC[C@H](NC(=O)[C@@H]1C[C@@H](OC(=O)N2Cc3ccccc3C2)CN1C(=O)[C@@H](N)C(C)(C)C)B1O[C@@H]2C[C@@H]3C[C@@H](C3(C)C)[C@]2(C)O1`, in experiment [1], half-maximal inhibition (IC50) was put at 3.2 µM. That is a single-digit micromolar value.

`CCC[C@H](NC(=O)[C@@H]1C[C@@H](OC(=O)N2Cc3ccccc3C2)CN1C(=O)[C@@H](NC(=O)OCCF)C(C)(C)C)B1O[C@@H]2C[C@@H]3C[C@@H](C3(C)C)[C@]2(C)O1` yielded an IC50 in experiment [1] of 0.002 µM. This compound came in with an EC50 in experiment [2] of 0.408 µM.

In the case of `CC[C@H](NC(=O)[C@@H]1C[C@@H](OC(=O)N2Cc3ccccc3C2)CN1C(=O)[C@@H](NC(=O)OC(C)(C)C)C(C)(C)C)B(O)O`, the IC50 in experiment [1] amounted to 0.002 µM. This compound also returned a concentration giving a half-maximal response (EC50) in [2] of 0.098 µM.

A word on the IC50: it is the midpoint of a concentration-inhibition curve. Low values mean greater potency, high ones weaker potency. In general, EC50 refers to the concentration needed to bring the measured effect to its halfway point. Lower therefore signals higher potency in that assay.
